Data on one molecule can be found in paper PMC8958510 (Journal of Medicinal Chemistry, 2022).

In brackets after ≈: the same amount, converted by molar mass.

The nature of series [1]: PAMPA-BBB assay for brain permeability. Background: The PAMPA barrier holds no transporters, so it reflects passive diffusion.
Description: PAMPA-BBB assay for brain permeability. The brain permeability (Pe) of the target
compounds was assessed by an in vitro parallel artificial membrane permeability assay for
blood‒brain barrier penetration (PAMPA-BBB assay),12 which uses a lipid extract of porcine
brain membrane as a BBB model. The assay was validated by comparing experimental and
reported Pe values of a set of fourteen commercial drugs (Table S2 of the Supporting
On the basis of this equation and the limits established by Di et al. for BBB
independent experiments, each performed in triplicate, were carried out for each compound.
The subject of series [2] is hippocampus of SAMP8 mice. Kind of series: Hippocampal gene expression of inflammatory markers by qPCR in SAMP8 mice. Format: in vivo, mouse. The note with it: 2 mg kg^–1 day^–1 oral, 4 weeks, vs control. As to the method: Compostela, Spain). The human, rat and mice pooled microsomes, with a protein content of 20 mg mL‒1, were purchased from Tebu-Xenotech. The compounds were incubated in a 96-well microplate at 37 °C with the microsomes in 50 mM phosphate buffer (pH = 7.4) containing as cofactors 30 mM MgCl2, 10 mM NADP, 100 mM glucose-6-phosphate and 40 […]
Samples (75 µL) were taken from each well at 0, 10, 20, 40 and 60 min and transferred to a microplate. 4 °C Acetonitrile (75 µL) and internal standard (rolipram) were then added for inactivating the microsomes, and water with 0.5% formic acid (30 µL) was subsequently added for improving the chromatographic conditions, keeping the mixtures at 4 °C. The plate was centrifuged at 46,000 g for 30 min at 15 °C and supernatants were taken and analyzed in a UPLC-MS/MS system (UPLC QSM Waters Acquity) using reverse phase Acquity UPLC® HSST3 1.7 μm (2.1 mm × 50 mm, Waters) as the stationary phase, 0.1% formic acid in water (A) / 0.1% formic acid in acetonitrile (B) as the mobile phase, a flow of 0.8 mL min‒1, and the […]
The metabolic stability of the compounds was calculated from the logarithm of the remaining compound at each of the time points studied.
(§1) In Vivo Proof-of-Concept of the Dual sEH / AChE Inhibitor […] in SAMP8 Mice Animals and treatment. The senescence-accelerated mouse-prone 8 (SAMP8) is an accelerated aging model established through phenotypic selection from AKR/J mice by […]
(§2) abnormal APP and β-amyloid processing and tau pathology, among others. Likewise, SAMP8 […]
(§3) and oxidative stress markers are present at early ages and during adultness.15 In this work, 5-month-old male SAMP8 mice were used to perform behavioral and molecular analyses.
(§4) Animals were randomly divided into SAMP8 control (n=8) and SAMP8 treated with 12c […]
(§5) (n=8, 2 mg kg‒1 day‒1). The animals had free access to food and water and were kept under standard temperature conditions (22 ± 2 °C) and 12-h/12-h light/dark cycles (300 lux/0 lux).
Compound 12c was dissolved in 1.8% (2-hydroxypropyl)-β-cyclodextrin (Sigma-Aldrich, St. […]
(In general: Quantitative PCR measures a nucleic acid by following its amplification.)

The next series has as its system SAMP8 mice. Put plainly: Novel object recognition test (NORT) in SAMP8 mice. The note with it: 2 mg kg^–1 day^–1 oral, 4 weeks, vs vehicle-treated. Format: in vivo, mouse.
Text: as §1, §2, §3, §4, §5
Compound 12c was dissolved in 1.8% (2-hydroxypropyl)-β-cyclodextrin (Sigma-Aldrich, St.
Louis, MO) and administered through drinking water for 4 weeks (Figure S6 of the Supporting Information). Control groups received water plus 1.8% (2-hydroxypropyl)-β-cyclodextrin during the treatment period. […]
had been replaced by a novel one. The behavior was recorded, and the time that the mice spent exploring the new object (TN) and the old one (TO) were measured manually. […]
The discrimination index (DI) was calculated as (TN‒TO)/(TN+TO). […]

Series [3] has as its target PAS of Electrophorus electricus AChE (EeAChE) (Electrophorus electricus, UniProt O42275). Kind of series: Propidium displacement studies (PAS of AChE). The series is classed as binding. More on the design: purchased Sigma-Aldrich type VI-S. The note with it: mean ± SD of two independent experiments, read-out: KD (displacement of propidium from PAS).
Description: Propidium Displacement Studies.
electricus AChE (EeAChE) (type VI-S, Sigma-Aldrich) was determined using the PAS-
specific ligand propidium iodide (P) (Sigma-Aldrich), following a described procedure.9
Complexation of propidium iodide and AChE leads to a shift in the excitation wavelength.9
Fluorescence intensity was monitored with a Jasco 6200 spectrofluorometer (Jasco Europe,
Italy) using a 0.5 mL quartz cuvette at rt. EeAChE (2 μM) was first incubated with 8 mM
propidium iodide in 1 mM Tris-HCl, pH 8.0 at rt.
prepared in MeOH. In the back titration experiments of the propidium‒AChE complex by
fluorescence emission was determined. KD values were obtained after processing the raw data
values are expressed as mean ± standard deviation (SD) of two independent experiments.
Series [4] is described as follows: Kinetic aqueous solubility screen (light scattering). The note with it: 1% DMSO / 99% PBS.
Description: Aqueous solubility screen. The kinetic aqueous solubility of the target compounds was
(§6) determined at the Innopharma Drug Screening and Pharmacogenomics Platform (Santiago de
Compostela, Spain). Ten mM stock solutions of the tested compounds were serially diluted,
NEPHELOstar Plus reader (BMG LABTECH). The results were adjusted to a segmented
linear regression to obtain the maximum concentration in which the compounds were soluble.
A short description of series [5]: Microsomal stability, mouse liver microsomes. Format: in vitro ADME. On the technique in general: Microsomes from liver hold many membrane-bound enzymes, among them those of drug oxidation.
Description: Microsomal stability screen. The microsomal stability of the target compounds was
as §6

Chain of PAS of Electrophorus electricus AChE (EeAChE) (O42275 24-633): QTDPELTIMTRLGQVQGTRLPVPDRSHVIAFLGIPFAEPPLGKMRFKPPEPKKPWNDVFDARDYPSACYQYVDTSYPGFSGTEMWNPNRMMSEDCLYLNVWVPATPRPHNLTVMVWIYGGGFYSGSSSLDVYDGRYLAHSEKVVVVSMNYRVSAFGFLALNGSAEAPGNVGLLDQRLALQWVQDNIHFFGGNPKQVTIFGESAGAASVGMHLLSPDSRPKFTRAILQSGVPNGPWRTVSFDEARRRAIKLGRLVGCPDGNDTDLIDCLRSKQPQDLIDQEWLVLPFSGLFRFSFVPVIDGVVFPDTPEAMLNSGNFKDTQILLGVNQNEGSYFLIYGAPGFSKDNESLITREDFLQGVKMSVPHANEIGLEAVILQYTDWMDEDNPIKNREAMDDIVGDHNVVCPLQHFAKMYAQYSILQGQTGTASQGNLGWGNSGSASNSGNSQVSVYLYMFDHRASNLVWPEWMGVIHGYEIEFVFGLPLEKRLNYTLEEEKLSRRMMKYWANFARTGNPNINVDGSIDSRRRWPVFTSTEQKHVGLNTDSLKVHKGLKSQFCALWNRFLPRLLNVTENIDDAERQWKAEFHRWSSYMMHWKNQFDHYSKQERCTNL

Usually Papp stands for the rate of passage across a membrane or cell layer, normalised by area and donor concentration. Read a low Papp as slow passage. For orientation: Kd means the concentration at which binding is half-saturated. For orientation: solubility means the dissolved amount per volume that the medium holds. A higher solubility goes with much dissolved substance. A word on the microsomal CLint: it is the rate of metabolic loss divided by the concentration. Usually fraction remaining stands for what is left of the initial amount, in per cent. Consider `O=C(Nc1ccc(OC(F)(F)F)cc1)NC1CCN(C(=O)CCCCNc2c3c(nc4cc(Cl)ccc24)CCCC3)CC1` [12c, 1-{1-{5-[(6-Chloro-1,2,3,4-tetrahydroacridin-9-yl)amino]pentanoyl}piperidin-4-yl}-3-[4-(trifluoromethoxy)phenyl]urea], for which the BBB permeation class result in series [1] (PAMPA-BBB prediction) was “CNS+ (High permeation, CNS+: Pe > 5.2)”. Also, in series [1] (pig, PAMPA), the Papp came out at 8.4 ± 0.7 ×10⁻⁶ cm/s. In series [2], the Gfap gene expression entry was “tendency toward reduced gene expression”, the Il-1β gene expression result was “tendency toward reduced gene expression” and the Il-6 gene expression entry is listed as “significant reduction”. Also, the “short-term working memory (NORT discrimination index)” value in the series with SAMP8 mice (2 h retention) is reported as “significantly ameliorated”. In addition, the “long-term working memory (NORT discrimination index)” value in the series on SAMP8 mice (24 h retention) was “significantly ameliorated”. Besides, in series [3], the equilibrium dissociation constant (Kd) stood at 3.95 ± 0.35 µM. For the same molecule, the solubility at 2 h in series [4] was found to be 7.5 µM (≈ 4.64 µg/mL). In series [5] (after 10 min), the “amount of compound, mouse liver microsomes” value came to 38%. In addition, the “amount of compound, mouse liver microsomes” value in series [5] (after 20 min) came out at 4%. The intrinsic metabolic clearance (microsomal CLint) at 1 h, 0.05 µM in series [5] (mouse, liver microsomes (pooled), pH 7.4, 37 °C) stood at 155 µL/min/mg. The half-life at 1 h, 0.05 µM in series [5] (mouse, liver microsomes (pooled), pH 7.4, 37 °C, read-out: t1/2, mouse microsomes) was 4 min. Besides, in series [5] (mouse, liver microsomes (pooled), pH 7.4, after 1 h of incubation at 37 °C, read-out: % remaining compound, mouse microsomes), the amount remaining at 1 h, 0.05 µM stood at 2%.
